Tests used:
[1] = test system: CS from rat kidney; parameters: method as in Matsuoka and Srere 1973; Lee et al. 1997; details: ref Matsuoka and Srere 1973; Lee et al. 1997; cited from earlier work
[2] = test system: CS from Drosophila melanogaster; parameters: method as in Matsuoka and Srere 1973; Lee et al. 1997; details: ref Matsuoka and Srere 1973; Lee et al. 1997; cited from earlier work
[3] = biological target: T1, recombinant PcGAPDH (rPcGAPDH) (Phanerodontia chrysosporium, UniProt Q01982); experiment: GAPDH assay and steady-state kinetic analysis; type: biochemical, Phanerochaete chrysosporium; details: 1 μM inhibitor, 5-min incubation, 0.6 mM GAP3 (Fig. 2C)
T1 construct: 6xHis-tag (pET-30) (cleaved yes); made in house; host or cells: E. coli BL21(DE3)pLysS
T1 sequence (Q01982 whole entry): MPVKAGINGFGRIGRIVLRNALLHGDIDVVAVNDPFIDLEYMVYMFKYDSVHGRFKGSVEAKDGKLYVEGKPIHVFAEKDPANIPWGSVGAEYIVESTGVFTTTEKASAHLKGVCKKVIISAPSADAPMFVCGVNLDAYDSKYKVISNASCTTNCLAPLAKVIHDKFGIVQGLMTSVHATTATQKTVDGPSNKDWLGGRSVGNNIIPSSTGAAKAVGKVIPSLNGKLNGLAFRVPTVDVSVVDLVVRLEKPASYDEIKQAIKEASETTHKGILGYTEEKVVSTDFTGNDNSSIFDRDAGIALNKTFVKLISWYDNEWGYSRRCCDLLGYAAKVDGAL
Procedure: GAPDH assay was performed as previously described (Campanale et al. [2003]). For steady-state kinetic analysis, the reaction mixture (1 ml) contained 40 mM phosphate (pH 7.6), 5.2 μg recombinant PcGAPDH (rPcGAPDH), 40 mM triethanolamine, 5 mM NAD^+, and 0.6–2 mM glyceraldehyde 3-phosphate (GAP3). Reactions were monitored by the increase in absorbance at 340 nm (ε 6220 M^–1 cm^–1) for 1 min, and initial velocities were determined. Inhibitory experiments were done in the presence of 0–2.5 μM hemin. To examine the effect of hemin on GAPDH kinetics, PcGAPDH was incubated with either buffer (control) or hemin for 5 min prior to initiating the reaction. Kinetic parameters were determined from Lineweaver–Burk plots, and Ki values were determined from the secondary plot of each slope of the Lineweaver–Burk plots. Immediately prior to use, hemin was dissolved at 10 mM in 0.1 M NaOH and diluted with 40 mM Tris–HCl (pH 7.5).
Fig. 2 Heterologous expression of PcGAPDH and inhibitory effect of hemin on GAPDH reaction. A M, molecular weight marker; lane 1, rPcGAPDH-His-tag; lane 2, His-tag-cleaved rPcGAPDH. B Reaction mixtures containing 2.5 nM rPcGAPDH, 40 mM phosphate (pH 7.6), 40 mM triethanolamine, 5 mM NAD^+, and 0.6–2 mM GAP3. […] Inset: secondary plots of each slope of Lineweaver–Burk plots against the concentration of hemin for determining inhibition constants. C Reaction mixtures containing 2.5 nM rPcGAPDH, 40 mM phosphate (pH 7.6), 40 mM triethanolamine, 5 mM NAD^+, and 0.6 mM GAP3. Reactions were started by adding substrates followed by 5-min incubation with either buffer or 1 μM inhibitor (hemin or protoporphyrin IX, PPIX). […] All experiments were performed in triplicate. Bars indicated as mean values ± standard deviation (error bars)

[4] = biological target: T2, rPcCS (mitochondrial citrate synthase) (Phanerodontia chrysosporium, UniProt Q0EAA7); experiment: CS assay (DTNB method) and steady-state kinetic analysis; type: biochemical, Phanerochaete chrysosporium; details: at a concentration more than 10 times the inhibitory concentration of hemin (data not shown)
T2 sequence (Q0EAA7 1-446): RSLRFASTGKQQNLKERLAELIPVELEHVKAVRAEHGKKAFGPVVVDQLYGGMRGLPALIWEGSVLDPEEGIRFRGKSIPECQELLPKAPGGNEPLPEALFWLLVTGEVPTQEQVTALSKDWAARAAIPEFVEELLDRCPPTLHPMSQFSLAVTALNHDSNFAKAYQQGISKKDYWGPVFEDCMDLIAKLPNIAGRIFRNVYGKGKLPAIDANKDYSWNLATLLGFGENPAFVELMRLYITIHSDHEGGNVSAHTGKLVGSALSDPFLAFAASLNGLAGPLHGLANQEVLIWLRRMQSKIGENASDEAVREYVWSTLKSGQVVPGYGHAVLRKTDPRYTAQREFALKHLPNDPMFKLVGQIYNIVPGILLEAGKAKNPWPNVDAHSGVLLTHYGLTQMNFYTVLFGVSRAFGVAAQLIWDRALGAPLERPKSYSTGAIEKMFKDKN
Procedure: CS was assayed by the 5, 5′-dithiobis-2-nitrobenzoic acid (DTNB) method, as described previously (Srere et al. [1963]). […] CS catalyzes the reaction of OAA with AcCoA, generating citrate and CoA. Thus, reactions were monitored by the amount of released CoA, which was followed at 412 nm (ε 13 600 M^–1cm^–1) by the formation of 2-nitro-5-mercaptobenzoic acid, via the reaction of CoA with DTNB. Reactions were monitored for 1 min, and initial velocity was determined. […] Inhibition studies were carried out in the presence of 0–2.5 μM hemin as described above. Kinetic parameters were determined from Lineweaver–Burk plots, and Ki values were determined from the secondary plot of the slopes of the Lineweaver–Burk plots. Hemin and OAA solutions were prepared immediately prior to use.
Fig. 5 Inhibitory effect of hemin on PcCS reaction. […] Reaction mixtures contained 1.5 nM rPcCS, 40 mM Tris-HCl (pH 8.5), and 120 μM DTNB. Fixed substrate was added at 12 μM and variable substrate at 3–12 μM. […] Insets: secondary plots of each slope of Lineweaver–Burk plots against the concentration of hemin for determining inhibition constants.

[5] = substrate: CC(=O)SCCNC(=O)CCNC(=O)[C@H](O)C(C)(C)COP(=O)(O)OP(=O)(O)OC[C@H]1O[C@@H](n2cnc3c(N)ncnc32)[C@H](O)[C@@H]1OP(=O)(O)O; experiment: purified protein, by the assay type; details: other: rPcCS, substrate AcCoA; pH 8.5
[6] = substrate: O=C(O)CC(=O)C(=O)O; experiment: purified protein, by the assay type; details: other: rPcCS, substrate OAA; pH 8.5

CC(C)(COP(=O)(O)OP(=O)(O)OC[C@H]1O[C@@H](n2cnc3c(N)ncnc32)[C@H](O)[C@@H]1OP(=O)(O)O)[C@@H](O)C(=O)NCCC(=O)NCCS [CoA, coenzyme A]
mode of inhibition [1]: competitive inhibitors of AcCoA and as non-competitive inhibitors of OAA | mode of inhibition [2]: competitive inhibitors of AcCoA and as non-competitive inhibitors of OAA

C=CC1=C(C)c2cc3[nH]c(cc4nc(cc5[nH]c(cc1n2)c(C)c5CCC(=O)O)C(CCC(=O)O)=C4C)c(C)c3C=C [protoporphyrin IX]
inhibition of PcGAPDH activity [3]: as effectively as by hemin | inhibition of PcCS [4]: slightly inhibited

CCC(=O)SCCNC(=O)CCNC(=O)[C@H](O)C(C)(C)COP(=O)(O)OP(=O)(O)OC[C@H]1O[C@@H](n2cnc3c(N)ncnc32)[C@H](O)[C@@H]1OP(=O)(O)O [propionyl-CoA]
mode of inhibition [1]: competitive inhibitors of AcCoA and as non-competitive inhibitors of OAA | mode of inhibition [2]: competitive inhibitors of AcCoA and as non-competitive inhibitors of OAA

B1: rPcCS (mitochondrial citrate synthase) (Phanerodontia chrysosporium) (protein)
chain: RSLRFASTGKQQNLKERLAELIPVELEHVKAVRAEHGKKAFGPVVVDQLYGGMRGLPALIWEGSVLDPEEGIRFRGKSIPECQELLPKAPGGNEPLPEALFWLLVTGEVPTQEQVTALSKDWAARAAIPEFVEELLDRCPPTLHPMSQFSLAVTALNHDSNFAKAYQQGISKKDYWGPVFEDCMDLIAKLPNIAGRIFRNVYGKGKLPAIDANKDYSWNLATLLGFGENPAFVELMRLYITIHSDHEGGNVSAHTGKLVGSALSDPFLAFAASLNGLAGPLHGLANQEVLIWLRRMQSKIGENASDEAVREYVWSTLKSGQVVPGYGHAVLRKTDPRYTAQREFALKHLPNDPMFKLVGQIYNIVPGILLEAGKAKNPWPNVDAHSGVLLTHYGLTQMNFYTVLFGVSRAFGVAAQLIWDRALGAPLERPKSYSTGAIEKMFKDKN
Km [5]: 4.2 µM | Vmax [5]: 25.8 nmol/min/mL | Km [6]: 6.2 µM | Vmax [6]: 31.4 nmol/min/mL

— article PMC10771590, “Pathway crosstalk between the central metabolic and heme biosynthetic pathways in Phanerochaete chrysosporium” (Applied Microbiology and Biotechnology, 2024)
